Laboratory results as given in US20250228242A1 (priority 2021, published 2025).
Structures can show the parent of a compound that is named as a salt.

Tested on: P. infestans
Experiment: whole plant or invertebrate
Type: in vivo
Conditions: Phytophthora infestans, in Solanum tuberosum, read-out: P. infestans % inhibition

SMILES | inhibition at 100 µM
NCCCC[C@H](N)C(=O)Nc1ccc(-c2nc(-c3ccc(OC(F)(F)F)cc3)n[nH]2)cc1 [Compound 58, (2S)-2,6-Diamino-N-(4-{3-[4-(trifluoromethoxy)phenyl]-1H-1,2,4-triazol-5-yl}phenyl)hexanamide dihydrochloride] | 89%
CCOc1ccc(-c2cc(-c3ccc(C)c(C)c3)[nH]n2)cc1 [Compound 134, 3-(3,4-Dimethylphenyl)-5-(4-ethoxyphenyl)-1H-pyrazole] | 19%
CCOc1cccc(-c2nc(-c3cccc(C)c3)n[nH]2)c1 [Compound 106, 5-(3-Ethoxyphenyl)-3-(3-methylphenyl)-1H-1,2,4-triazole] | 44%
COC(=O)Nc1ccc(-c2nc(-c3ccc(OC(F)(F)F)cc3)n[nH]2)cc1 [Compound 77, Methyl (4-{5-[4-(trifluoromethoxy)phenyl]-1H-1,2,4-triazol-3-yl}phenyl)carbamate] | 6%
Cc1ccc(S(=O)(=O)Nc2ccc(-c3cc(-c4ccccc4F)no3)cc2)cc1 [Compound 47, N-{4-[3-(2-Fluorophenyl)-isoxazol-5-yl]phenyl}-4-methylbenzenesulfonamide] | 19%
CCc1ccc(-c2cc(-c3cccc(NC(=O)OCCOC)c3)[nH]n2)cc1 [Compound 126, 2-Methoxyethyl {3-[5-(4-ethylphenyl)-1H-pyrazol-3-yl]phenyl}carbamate] | 81%
O=C(O)c1cccc(-c2noc(-c3ccccc3F)n2)c1 [Compound 62, 3-[5-(2-Fluorophenyl)-1,2,4-oxadiazol-3-yl]benzoic acid] | 64%
O=C(Nc1ccc(F)cc1)Nc1ccc(-c2cc(-c3cccc(OC(F)(F)F)c3)n[nH]2)cc1 [Compound 127, 1-(4-Fluorophenyl)-3-(4-{5-[3-(trifluoromethoxy)phenyl]-1H-pyrazol-3-yl}phenyl)urea] | 18%
Cc1ccc(-c2cnc(-c3ccc(C(=O)O)cc3)o2)cc1 [Compound 116, 4-[5-(4-Methylphenyl)-1,3-oxazol-2-yl]benzoic acid] | 72%
Fc1cccc(-c2c[nH]c(-c3cccc(C(F)(F)F)c3)n2)c1 [Compound 151, 4-(3-Fluorophenyl)-2-[3-(trifluoromethyl)phenyl]-1H-imidazole] | 85%
COc1cc(-c2cc(-c3cccc(C(F)(F)F)c3)no2)ccc1Cl [Compound 48, 5-(4-Chloro-3-methoxyphenyl)-3-[3-(trifluoromethyl)phenyl]-isoxazole] | 21%
O=C(Nc1cccc(-c2c[nH]c(-c3ccc(F)cc3)n2)c1)C(F)(F)F [Compound 54, 2,2,2-Trifluoro-N-{3-[2-(4-fluorophenyl)-1H-imidazol-5-yl]phenyl}acetamide] | 91%
COC(=O)Nc1cccc(-c2ncc(-c3ccc(Cl)c(Cl)c3)o2)c1 [Compound 120, Methyl {3-[5-(3,4-dichlorophenyl)-1,3-oxazol-2-yl]phenyl}carbamate] | 12%
O=C(O)c1ccc(-c2cc(-c3ccc(F)cc3)[nH]n2)cc1 [Compound 142, 4-[5-(4-Fluorophenyl)-1H-pyrazol-3-yl]benzoic acid] | 46%
Cc1ccc(-c2cc(-c3ccc(NC(=O)[C@@H](N)CCC(N)=O)cc3)[nH]n2)cc1 [Compound 162, (2S)-2-Amino-N1-{4-[3-(4-methylphenyl)-1H-pyrazol-5-yl]phenyl}pentanediamide hydrochloride] | 34%
Clc1ccccc1-c1cc(-c2ccc(N3CCCCC3)cc2)on1 [Compound 91, 1-{4-[3-(2-Chlorophenyl)-1,2-oxazol-5-yl]phenyl}piperidine] | 29%
CSc1ccc(Cl)c(-c2nc(-c3cccc(OC(F)(F)F)c3)no2)c1 [Compound 65, 5-[2-Chloro-5-(methylsulfanyl)phenyl]-3-[3-(trifluoromethoxy)phenyl]-1,2,4-oxadiazole] | 31%
